Source: patent US11208405B2, “Pyrrole derivatives as PLK1 inhibitors” (SENTINEL ONCOLOGY LIMITED, priority 2017, dated 2021)
Structures can show the parent of a compound that is named as a salt.

What was measured:
cytochrome P450 2C19 = cytochrome P450 2C19 (Homo sapiens, UniProt P33261); assay: Cytochrome P450 inhibition, 2C19; type: in vitro ADME
[1] = Determination of oral bioavailability (plasma pharmacokinetics i.v. and p.o.); type: in vivo, Male CD-1 mice; conditions: mice
Description: Determination of Oral Bioavailability The oral bioavailability of the compound of Example 33 was determined in mice and compared with the bioavailability following intravenous injection using the following protocol. […] N=3 mice per time point with 15 ul plasma per aliquot.

wild-type HeLa cell line = assay: Wild-type versus KRAS HeLa cell viability: wild-type KRAS transgene; type: cell-based; conditions: Homo sapiens; HeLa cells expressing wild-type KRAS, 72 hours; read-out: WT GI50
Description: (§1) Assay to Measure the Effects of Compounds of the Invention on Wild-Type Versus KRAS HeLa Cell Viability
(§2) Identifying synthetic lethal interactions between targeted small molecule therapies and characterised oncogenic mutations is a goal of modern oncology drug discovery efforts. To this end, PLK1-PBD inhibitors were tested on HeLa cells engineered to inducibly express wild-type or oncogenic KrasG12V transgenes using the FLP-in/T-Rex system (Invitrogen). Cells were plated, and then treated with or without Doxycycline to induce transgene expression, and then treated with serially-diluted PBD inhibitors. After 72 hours of incubation, cell viability was assessed using the Cell Titre Blue reagent (Promega) and a BMG Pherastar plate reader. The effect of PBD inhibition on cell viability with either wild-type or oncogenic G12V KRAS was assessed using the graphing/curve-fitting packages in GraphPad Prism.

BMP2K = molecular target: T1, BMP2K (Homo sapiens, UniProt Q9NSY1); assay: Kinase selectivity assay (DiscoverX KinomeScreen), BMP2K; type: binding; conditions: read-out: % Control
T1 construct: purchased DiscoverX
Description: (§3) The compound of Example 33 was tested for off-target activity against a panel of fifty five kinases bearing functional or structural similarity to PLK1 at a concentration of 5 μM using the DiscoverX KinomeScreen assay.

WNK1 = molecular target: T2, WNK1 (Homo sapiens, UniProt Q9H4A3); assay: Kinase selectivity assay (DiscoverX KinomeScreen), WNK1; type: binding; conditions: WNK1, 5 μM; read-out: % Control
T2 construct: purchased DiscoverX
Description: as §3

CAMKK1 = molecular target: T3, CAMKK1 (Homo sapiens, UniProt Q8N5S9); assay: Kinase selectivity assay (DiscoverX KinomeScreen), CAMKK1; type: binding; conditions: CAMKK1, 5 μM; read-out: % Control
T3 construct: purchased DiscoverX
Description: as §3

[2] = system: glioblastoma cell line 906868; assay: Glioblastoma cancer cell viability, cell line 906868; type: cell-based
Description: (§4) Assay to Measure the Effects of Compounds of the Invention on Glioblastoma Cancer Cell Viability
(§5) The compound of Example 33 was tested for inhibitory activity against the glioblastoma cell lines in Table 7 below.

CDK2 = molecular target: T4, CDK2 (Homo sapiens, UniProt P24941); assay: Kinase selectivity assay (DiscoverX KinomeScreen), CDK2; type: binding; conditions: CDK2, 5 μM; read-out: % Control
T4 construct: purchased DiscoverX
Description: as §3

WNK3 = molecular target: T5, WNK3 (Homo sapiens, UniProt Q9BYP7); assay: Kinase selectivity assay (DiscoverX KinomeScreen), WNK3; type: binding; conditions: WNK3, 5 μM; read-out: % Control
T5 construct: purchased DiscoverX
Description: as §3

KRAS G12V HeLa cell line = assay: Wild-type versus KRAS HeLa cell viability: oncogenic KrasG12V transgene; type: cell-based; conditions: Homo sapiens; HeLa cells expressing KRAS G12V, 72 hours
Description: as §1, §2

NEK10 = molecular target: T6, NEK10 (Homo sapiens, UniProt Q6ZWH5); assay: Kinase selectivity assay (DiscoverX KinomeScreen), NEK10; type: binding; conditions: NEK10, 5 μM; read-out: % Control
T6 construct: purchased DiscoverX
Description: as §3

[3] = system: glioblastoma cell line 908145; assay: Glioblastoma cancer cell viability, cell line 908145; type: cell-based
Description: as §4, §5

NEK4 = molecular target: T7, NEK4 (Homo sapiens, UniProt P51957); assay: Kinase selectivity assay (DiscoverX KinomeScreen), NEK4; type: binding; conditions: NEK4, 5 μM; read-out: % Control
T7 construct: purchased DiscoverX
Description: as §3

STK36 = molecular target: T8, STK36 (Homo sapiens, UniProt Q9NRP7); assay: Kinase selectivity assay (DiscoverX KinomeScreen), STK36; type: binding; conditions: STK36, 5 μM; read-out: % Control
T8 construct: purchased DiscoverX
Description: as §3

cytochrome P450 2C9 = cytochrome P450 2C9 (Homo sapiens, UniProt P11712); assay: Cytochrome P450 inhibition, 2C9; type: in vitro ADME
[4] = system: glioblastoma cell line 907313; assay: Glioblastoma cancer cell viability, cell line 907313; type: cell-based
Description: as §4, §5

IKBKB = molecular target: T9, IKBKB (Homo sapiens, UniProt O14920); assay: Kinase selectivity assay (DiscoverX KinomeScreen), IKBKB; type: binding; conditions: read-out: % Control
T9 construct: purchased DiscoverX
Description: as §3

NEK9 = molecular target: T10, NEK9 (Homo sapiens, UniProt Q8TD19); assay: Kinase selectivity assay (DiscoverX KinomeScreen), NEK9; type: binding; conditions: NEK9, 5 μM; read-out: % Control
T10 construct: purchased DiscoverX
Description: as §3

PLK4 = molecular target: T11, PLK4 (Homo sapiens, UniProt O00444); assay: Kinase selectivity assay (DiscoverX KinomeScreen), PLK4; type: binding; conditions: PLK4, 5 μM; read-out: % Control
T11 construct: purchased DiscoverX
Description: as §3

[5] = system: glioblastoma cell line 908144; assay: Glioblastoma cancer cell viability, cell line 908144; type: cell-based
Description: as §4, §5

CHUK = molecular target: T12, CHUK (Homo sapiens, UniProt O15111); assay: Kinase selectivity assay (DiscoverX KinomeScreen), CHUK; type: binding; conditions: read-out: % Control
T12 construct: purchased DiscoverX
Description: as §3

NEK7 = molecular target: T13, NEK7 (Homo sapiens, UniProt Q8TDX7); assay: Kinase selectivity assay (DiscoverX KinomeScreen), NEK7; type: binding; conditions: NEK7, 5 μM; read-out: % Control
T13 construct: purchased DiscoverX
Description: as §3

ULK3 = molecular target: T14, ULK3 (Homo sapiens, UniProt Q6PHR2); assay: Kinase selectivity assay (DiscoverX KinomeScreen), ULK3; type: binding; conditions: ULK3, 5 μM; read-out: % Control
T14 construct: purchased DiscoverX
Description: as §3

[6] = system: glioblastoma cell line 1240170; assay: Glioblastoma cancer cell viability, cell line 1240170; type: cell-based
Description: as §4, §5

EIF2AK2 = molecular target: T15, EIF2AK2 (Homo sapiens, UniProt P19525); assay: Kinase selectivity assay (DiscoverX KinomeScreen), EIF2AK2; type: binding; conditions: EIF2AK2, 5 μM; read-out: % Control
T15 construct: purchased DiscoverX
Description: as §3

EIF2AK4 = assay: Kinase selectivity assay (DiscoverX KinomeScreen), EIF2AK4; type: binding; conditions: EIF2AK4, 5 μM
Description: as §3

STK16 = molecular target: T16, STK16 (Homo sapiens, UniProt O75716); assay: Kinase selectivity assay (DiscoverX KinomeScreen), STK16; type: binding; conditions: STK16, 5 μM; read-out: % Control
T16 construct: purchased DiscoverX
Description: as §3

GSG2 = molecular target: T17, GSG2 (Homo sapiens, UniProt Q8TF76); assay: Kinase selectivity assay (DiscoverX KinomeScreen), GSG2; type: binding; conditions: GSG2, 5 μM; read-out: % Control
T17 construct: purchased DiscoverX
Description: as §3

AAK1 = molecular target: T18, AAK1 (Homo sapiens, UniProt Q2M2I8); assay: Kinase selectivity assay (DiscoverX KinomeScreen), AAK1; type: binding; conditions: AAK1, 5 μM; read-out: % Control
T18 construct: purchased DiscoverX
Description: as §3

[7] = male, CD-1, mouse, 2 mg/kg IV, plasma
[8] = male, CD-1, mouse, 10 mg/Kg PO, plasma

T14 sequence (Q6PHR2 whole entry): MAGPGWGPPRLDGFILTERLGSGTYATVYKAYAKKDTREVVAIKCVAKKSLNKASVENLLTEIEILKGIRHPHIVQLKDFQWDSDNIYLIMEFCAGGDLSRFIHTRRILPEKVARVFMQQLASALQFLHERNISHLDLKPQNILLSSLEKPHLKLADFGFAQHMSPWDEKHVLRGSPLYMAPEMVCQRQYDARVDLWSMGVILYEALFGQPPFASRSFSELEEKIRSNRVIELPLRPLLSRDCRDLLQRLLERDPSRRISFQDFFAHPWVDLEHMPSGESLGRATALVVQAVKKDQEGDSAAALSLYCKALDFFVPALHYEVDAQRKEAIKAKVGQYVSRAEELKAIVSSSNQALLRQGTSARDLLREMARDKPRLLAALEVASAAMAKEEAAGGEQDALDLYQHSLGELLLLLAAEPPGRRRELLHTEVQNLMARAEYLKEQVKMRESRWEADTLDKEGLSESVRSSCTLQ
T10 sequence (Q8TD19 whole entry): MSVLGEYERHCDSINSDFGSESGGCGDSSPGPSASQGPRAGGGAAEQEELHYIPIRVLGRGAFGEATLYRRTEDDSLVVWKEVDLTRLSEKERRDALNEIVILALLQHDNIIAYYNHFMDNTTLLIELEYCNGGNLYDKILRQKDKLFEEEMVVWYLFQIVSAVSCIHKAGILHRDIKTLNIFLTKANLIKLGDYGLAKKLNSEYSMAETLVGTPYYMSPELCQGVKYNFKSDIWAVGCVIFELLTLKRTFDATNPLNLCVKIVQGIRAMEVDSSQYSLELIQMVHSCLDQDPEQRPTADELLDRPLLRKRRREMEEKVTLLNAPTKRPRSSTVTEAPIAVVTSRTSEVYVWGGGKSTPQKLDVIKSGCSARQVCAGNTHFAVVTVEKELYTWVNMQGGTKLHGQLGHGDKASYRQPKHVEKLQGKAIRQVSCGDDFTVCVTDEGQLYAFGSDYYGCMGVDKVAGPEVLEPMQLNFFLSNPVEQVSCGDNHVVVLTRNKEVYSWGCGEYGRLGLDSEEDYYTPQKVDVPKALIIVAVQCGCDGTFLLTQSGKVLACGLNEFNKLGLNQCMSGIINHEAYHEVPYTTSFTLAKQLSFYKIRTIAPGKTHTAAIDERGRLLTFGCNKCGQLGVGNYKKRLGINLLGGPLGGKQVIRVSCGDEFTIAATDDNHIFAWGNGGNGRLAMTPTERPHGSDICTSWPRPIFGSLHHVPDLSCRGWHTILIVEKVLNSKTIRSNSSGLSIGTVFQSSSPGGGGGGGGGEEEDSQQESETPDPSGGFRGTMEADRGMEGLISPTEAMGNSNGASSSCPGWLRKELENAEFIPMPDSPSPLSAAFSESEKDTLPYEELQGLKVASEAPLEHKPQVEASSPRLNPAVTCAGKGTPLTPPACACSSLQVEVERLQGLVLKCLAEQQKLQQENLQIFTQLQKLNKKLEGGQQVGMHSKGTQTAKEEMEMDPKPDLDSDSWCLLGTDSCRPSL
T6 sequence (Q6ZWH5 whole entry): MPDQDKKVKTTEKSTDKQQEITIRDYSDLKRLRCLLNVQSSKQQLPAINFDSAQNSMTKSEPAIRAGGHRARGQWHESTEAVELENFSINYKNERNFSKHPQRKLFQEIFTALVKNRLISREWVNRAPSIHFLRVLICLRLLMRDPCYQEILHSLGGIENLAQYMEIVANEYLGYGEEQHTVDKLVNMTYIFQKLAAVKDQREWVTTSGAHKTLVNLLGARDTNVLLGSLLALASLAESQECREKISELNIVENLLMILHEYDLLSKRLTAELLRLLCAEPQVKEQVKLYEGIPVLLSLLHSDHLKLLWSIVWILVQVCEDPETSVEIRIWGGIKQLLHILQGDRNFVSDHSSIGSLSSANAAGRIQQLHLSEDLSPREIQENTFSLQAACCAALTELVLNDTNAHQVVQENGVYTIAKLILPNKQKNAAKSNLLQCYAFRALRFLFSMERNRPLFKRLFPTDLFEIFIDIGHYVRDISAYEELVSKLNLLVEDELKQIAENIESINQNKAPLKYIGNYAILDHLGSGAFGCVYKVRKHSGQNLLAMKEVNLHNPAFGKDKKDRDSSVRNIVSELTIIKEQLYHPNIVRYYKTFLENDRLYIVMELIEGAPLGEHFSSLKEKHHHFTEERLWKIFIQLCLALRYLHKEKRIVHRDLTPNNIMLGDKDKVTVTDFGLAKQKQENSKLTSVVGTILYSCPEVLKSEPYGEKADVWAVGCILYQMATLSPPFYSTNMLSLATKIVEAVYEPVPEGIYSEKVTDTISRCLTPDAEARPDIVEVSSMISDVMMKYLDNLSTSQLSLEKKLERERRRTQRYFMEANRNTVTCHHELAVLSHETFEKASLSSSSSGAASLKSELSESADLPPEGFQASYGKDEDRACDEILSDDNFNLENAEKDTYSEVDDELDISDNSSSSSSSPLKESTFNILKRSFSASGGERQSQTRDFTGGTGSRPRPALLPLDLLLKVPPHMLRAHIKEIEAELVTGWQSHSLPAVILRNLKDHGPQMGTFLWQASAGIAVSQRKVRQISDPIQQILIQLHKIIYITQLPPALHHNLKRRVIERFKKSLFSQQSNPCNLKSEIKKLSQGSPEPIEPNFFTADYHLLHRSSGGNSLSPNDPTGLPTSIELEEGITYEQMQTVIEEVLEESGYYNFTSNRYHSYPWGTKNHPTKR
T1 sequence (Q9NSY1 whole entry): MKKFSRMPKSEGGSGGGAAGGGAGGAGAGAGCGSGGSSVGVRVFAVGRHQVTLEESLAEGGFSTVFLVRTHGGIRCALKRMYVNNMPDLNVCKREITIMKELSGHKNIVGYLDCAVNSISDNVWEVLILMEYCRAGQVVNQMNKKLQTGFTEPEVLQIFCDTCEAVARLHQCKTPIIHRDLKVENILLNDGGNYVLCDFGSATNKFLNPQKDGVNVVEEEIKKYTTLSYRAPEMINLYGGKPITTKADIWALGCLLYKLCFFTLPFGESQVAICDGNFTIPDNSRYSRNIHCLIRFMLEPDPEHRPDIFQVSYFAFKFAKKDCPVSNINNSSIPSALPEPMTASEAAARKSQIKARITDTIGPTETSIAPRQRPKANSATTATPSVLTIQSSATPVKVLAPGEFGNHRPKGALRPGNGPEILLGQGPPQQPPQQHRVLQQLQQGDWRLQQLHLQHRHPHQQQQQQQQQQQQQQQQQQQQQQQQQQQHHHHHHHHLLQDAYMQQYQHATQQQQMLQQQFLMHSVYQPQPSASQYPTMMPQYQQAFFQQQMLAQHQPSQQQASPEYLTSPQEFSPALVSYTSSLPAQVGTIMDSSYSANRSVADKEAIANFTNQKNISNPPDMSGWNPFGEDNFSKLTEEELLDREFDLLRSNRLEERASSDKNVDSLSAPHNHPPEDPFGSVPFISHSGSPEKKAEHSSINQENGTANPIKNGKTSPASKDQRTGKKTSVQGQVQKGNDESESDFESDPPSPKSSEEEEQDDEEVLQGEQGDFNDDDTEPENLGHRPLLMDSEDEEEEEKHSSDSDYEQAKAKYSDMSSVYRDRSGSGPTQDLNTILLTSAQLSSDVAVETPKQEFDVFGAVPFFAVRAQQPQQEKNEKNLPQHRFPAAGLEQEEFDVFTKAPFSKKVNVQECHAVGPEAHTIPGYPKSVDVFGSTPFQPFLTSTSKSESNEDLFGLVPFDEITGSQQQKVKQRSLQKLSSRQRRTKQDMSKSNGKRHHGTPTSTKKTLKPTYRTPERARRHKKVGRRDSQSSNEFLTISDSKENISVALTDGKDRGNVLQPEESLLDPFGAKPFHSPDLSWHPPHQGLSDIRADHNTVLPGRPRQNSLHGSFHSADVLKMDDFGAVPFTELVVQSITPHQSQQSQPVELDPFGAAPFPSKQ
T16 sequence (O75716 whole entry): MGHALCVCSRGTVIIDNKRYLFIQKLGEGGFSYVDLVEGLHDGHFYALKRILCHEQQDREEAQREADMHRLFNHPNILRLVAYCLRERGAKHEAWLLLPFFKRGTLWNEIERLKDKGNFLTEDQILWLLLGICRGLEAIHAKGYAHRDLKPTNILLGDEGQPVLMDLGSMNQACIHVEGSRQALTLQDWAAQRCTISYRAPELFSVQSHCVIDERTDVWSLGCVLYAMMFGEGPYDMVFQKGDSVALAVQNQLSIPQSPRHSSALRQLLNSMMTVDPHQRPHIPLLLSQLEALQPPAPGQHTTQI
T15 sequence (P19525 whole entry): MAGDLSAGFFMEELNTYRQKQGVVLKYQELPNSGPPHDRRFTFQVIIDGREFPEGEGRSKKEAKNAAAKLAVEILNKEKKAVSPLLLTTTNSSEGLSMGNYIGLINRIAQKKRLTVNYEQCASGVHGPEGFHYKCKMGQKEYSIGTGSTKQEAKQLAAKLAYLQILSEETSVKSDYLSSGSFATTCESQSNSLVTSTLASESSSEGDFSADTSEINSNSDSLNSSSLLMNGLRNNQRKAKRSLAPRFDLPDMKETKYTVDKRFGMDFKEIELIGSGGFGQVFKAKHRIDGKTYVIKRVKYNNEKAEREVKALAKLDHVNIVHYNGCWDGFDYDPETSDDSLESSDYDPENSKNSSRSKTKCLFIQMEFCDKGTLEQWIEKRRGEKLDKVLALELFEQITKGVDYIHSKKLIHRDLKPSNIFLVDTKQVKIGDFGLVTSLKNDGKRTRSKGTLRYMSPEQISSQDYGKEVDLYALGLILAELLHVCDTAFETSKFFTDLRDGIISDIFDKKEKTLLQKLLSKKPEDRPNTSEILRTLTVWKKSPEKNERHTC
T13 sequence (Q8TDX7 whole entry): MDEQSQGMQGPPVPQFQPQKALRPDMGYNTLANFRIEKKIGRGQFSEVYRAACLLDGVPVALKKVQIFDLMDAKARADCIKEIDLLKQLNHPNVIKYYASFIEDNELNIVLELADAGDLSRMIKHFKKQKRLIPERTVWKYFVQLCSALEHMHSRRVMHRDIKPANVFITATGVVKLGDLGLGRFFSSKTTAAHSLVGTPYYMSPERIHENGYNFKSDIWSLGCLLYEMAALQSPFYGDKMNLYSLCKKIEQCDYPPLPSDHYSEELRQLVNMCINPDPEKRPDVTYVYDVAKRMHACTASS

CN(C)CCNC(=O)c1ccc(-c2ccc(-c3ccc(Cl)cc3)n2-c2ccccc2C(F)(F)F)cc1 [Example 33, 4-[5-(4-chlorophenyl)-1-[2-(trifluoromethyl)phenyl]pyrrol-2-yl]-N-[2-(dimethylamino)ethyl]benzamide Hydrochloride]
cytochrome P450 inhibition 2C19 (cytochrome P450 2C19): > 10 µM | AUC(0-inf) [1, 7]: 2100 ng·h/mL | Cmax [1, 7]: 873 ng/mL | half-life ([1]; male, CD-1, mouse, 2 mg/kg IV, plasma, read-out: T½ (converted)): 13 h | Vd ([1]; male, CD-1, mouse, 2 mg/kg IV, plasma, read-out: Vss): 17 L/kg | AUC(0-inf) [1, 8]: 9800 ng·h/mL | Cmax [1, 8]: 415 ng/mL | CI ([1]; 2 mg/kg IV, plasma): 16 mL/min/kg | F ([1]; 10 mg/Kg PO versus 2 mg/kg IV): 93% | T½ ([1]; 10 mg/Kg PO, plasma): 15 h | Vz ([1]; 10 mg/Kg PO, plasma): 23 L/kg | GI50 (wild-type HeLa cell line): 20 nM | remaining activity at 5 µM (BMP2K): 85% | remaining activity at 5 µM (WNK1): 97% | remaining activity at 5 µM (CAMKK1): 91% | IC50 [2]: 252 nM | remaining activity at 5 µM (CDK2): 89% | remaining activity at 5 µM (WNK3): 100% | GI50 (KRAS G12V HeLa cell line): 10 nM | remaining activity at 5 µM (NEK10): 94% | IC50 [3]: 223 nM | remaining activity at 5 µM (NEK4): 100% | remaining activity at 5 µM (STK36): 91% | cytochrome P450 inhibition 2C9 (cytochrome P450 2C9): > 10 µM | IC50 [4]: 1110 nM | remaining activity at 5 µM (IKBKB): 100% | remaining activity at 5 µM (NEK9): 92% | remaining activity at 5 µM (PLK4): 90% | IC50 [5]: 2420 nM | remaining activity at 5 µM (CHUK): 100% | remaining activity at 5 µM (NEK7): 79% | remaining activity at 5 µM (ULK3): 88% | IC50 [6]: 363 nM | remaining activity at 5 µM (EIF2AK2): 90% | % Control (EIF2AK4): 97% | remaining activity at 5 µM (STK16): 92% | remaining activity at 5 µM (GSG2): 77% | remaining activity at 5 µM (AAK1): 100%
